The source made the active and inactive calls. The calls are words filed in the database; no cut-off is given here.

What all share (assay type): functional
Assay [1] concerns Staphylococcus aureus. The assay is described as follows: Antibacterial activity against Staphylococcus aureus assessed at 50 ug after 24 hrs by agar well diffusion method. The following applies: for zone of inhibition at 50 µg/disc: read-out: DIZ.
The subject of assay [2] is Staphylococcus aureus. As to the kind of experiment: Antibacterial activity against Staphylococcus aureus at 100 ug after 24 hrs by agar well diffusion method. The following applies: for zone of inhibition at 100 µg/disc: read-out: DIZ.
Assay [3] deals with Bacillus subtilis. As to the kind of experiment: Antibacterial activity against Bacillus subtilis at 50 ug after 24 hrs by agar well diffusion method. To be noted: for zone of inhibition at 50 µg/disc: read-out: DIZ.
The subject of assay [4] is Bacillus subtilis. The assay is described as follows: Antibacterial activity against Bacillus subtilis at 100 ug after 24 hrs by agar well diffusion method. To be noted: for zone of inhibition at 100 µg/disc: read-out: DIZ.
The test system of assay [5] is Pseudomonas aeruginosa. The assay is described as follows: Antibacterial activity against Pseudomonas aeruginosa at 50 ug after 24 hrs by agar well diffusion method. The following applies: for zone of inhibition at 50 µg/disc: read-out: DIZ.
The subject of assay [6] is Pseudomonas aeruginosa. The assay is described as follows: Antibacterial activity against Pseudomonas aeruginosa at 100 ug after 24 hrs by agar well diffusion method. The following applies: for zone of inhibition at 100 µg/disc: read-out: DIZ.
Assay [7] relates to Klebsiella pneumoniae. As to the kind of experiment: Antibacterial activity against Klebsiella pneumoniae at 50 ug after 24 hrs by agar well diffusion method. The following applies: for zone of inhibition at 50 µg/disc: read-out: DIZ.
The subject of assay [8] is Klebsiella pneumoniae. As to the kind of experiment: Antibacterial activity against Klebsiella pneumoniae at 100 ug after 24 hrs by agar well diffusion method. The following applies: for zone of inhibition at 100 µg/disc: read-out: DIZ.
The test system of assay [9] is Aspergillus niger. As to the kind of experiment: Antifungal activity against Aspergillus niger at 50 ug after 48 hrs by agar well diffusion method. To be noted: for zone of inhibition at 50 µg/disc: read-out: DIZ.
Assay [10] relates to Aspergillus niger. The assay is described as follows: Antifungal activity against Aspergillus niger at 100 ug after 48 hrs by agar well diffusion method. To be noted: for zone of inhibition at 100 µg/disc: read-out: DIZ.
For assay [11], the system named is Penicillium chrysogenum. The assay is described as follows: Antifungal activity against Penicillium chrysogenum at 50 ug after 48 hrs by agar well diffusion method. The following applies: for zone of inhibition at 50 µg/disc: read-out: DIZ.
Assay [12] relates to Penicillium chrysogenum. The assay is described as follows: Antifungal activity against Penicillium chrysogenum at 100 ug after 48 hrs by agar well diffusion method. To be noted: for zone of inhibition at 100 µg/disc: read-out: DIZ.

As to `Cc1ccc(-c2c[nH]c(NC(=O)C3=NNCC3c3ccccc3)n2)cc1` (stereo unspecified), the zone of inhibition at 50 µg/disc in assay [1] amounted to 11 mm; in assay [3], 14 mm; in assay [5], 11 mm; in [7] it was 16 mm; in assay [9], 11 mm; in assay [11], 13 mm. In addition, the zone of inhibition at 100 µg/disc in assay [2] is 13 mm; in assay [4], 16 mm; in [6] it was 13 mm; in [8], 18 mm; in assay [10], 14 mm; in [12], 16 mm.

As for `Cc1ccc(-c2c[nH]c(NC(=O)/C=C/c3ccccc3)n2)cc1`, the zone of inhibition at 50 µg/disc in [1] was 18 mm; in [3], 21 mm; in assay [5], 14 mm; in [7] it was 23 mm; in assay [9] it was 18 mm; in assay [11] it was 20 mm. Also, the zone of inhibition at 100 µg/disc in assay [2] was determined as 20 mm; in assay [4] it was 23 mm; in assay [6], 16 mm; in [8] it was 25 mm; in assay [10] it was 21 mm; in [12], 23 mm.

Take `O=C(Nc1nc(-c2ccccc2)c[nH]1)C1=NNCC1c1ccccc1` (stereo unspecified): the zone of inhibition at 50 µg/disc in assay [1] was found to be 12 mm; in [3], 15 mm; in [5] it was 12 mm; in assay [7], 17 mm; in assay [9], 13 mm; in assay [11], 14 mm. The zone of inhibition at 100 µg/disc stood at 14 mm in assay [2]; 17 mm in assay [4]; 14 mm in assay [6]; 19 mm in [8]; 15 mm in [10]; 17 mm in assay [12].

Take `O=C(Nc1nc(-c2ccccc2)c[nH]1)c1n[nH]cc1-c1ccccc1`: the zone of inhibition at 50 µg/disc in [1] worked out at 8 mm; in assay [3] it was 10 mm; in assay [5] it was 9 mm; in [7], 12 mm; in [9] it was 8 mm; in [11], 9 mm. Further, the zone of inhibition at 100 µg/disc came to 10 mm in [2]; 13 mm in assay [4]; 11 mm in [6]; 14 mm in [8]; 10 mm in [10]; 12 mm in assay [12].

Consider `O=C(Nc1nc(-c2ccccc2)cs1)c1n[nH]cc1-c1ccccc1`, for which the zone of inhibition at 50 µg/disc in assay [1] is 9 mm; in assay [3], 12 mm; in assay [5], 9 mm; in assay [7], 14 mm; in [9], 9 mm; in [11] it was 11 mm. In addition, the zone of inhibition at 100 µg/disc was found to be 12 mm in [2]; 14 mm in [4]; 11 mm in assay [6]; 16 mm in assay [8]; 12 mm in assay [10]; 14 mm in assay [12].

`Cc1ccc(-c2coc(NC(=O)c3n[nH]cc3-c3ccccc3)n2)cc1`: the “diameter of the inhibition zone (DIZ)” value in [1], in assay [2], in [3], in assay [4], in assay [5] and in [6] was “inactive” throughout. Further, the “diameter of the inhibition zone (DIZ)” value in assay [7], in assay [8], in [9], in [10], in assay [11] and in [12] was “inactive” in each case.

On to `Cc1ccc(-c2coc(NC(=O)C3=NNCC3c3ccccc3)n2)cc1` (stereo unspecified), for which the “diameter of the inhibition zone (DIZ)” value in assay [1], in assay [2], in assay [3], in assay [4], in [5] and in [6] was “inactive” throughout. The “diameter of the inhibition zone (DIZ)” value in assay [7], in assay [8], in [9], in assay [10], in assay [11] and in assay [12] was “inactive” throughout.

Consider `O=C(Nc1nc(-c2ccc(Cl)cc2)cs1)c1n[nH]cc1-c1ccccc1`, for which the zone of inhibition at 50 µg/disc came to 27 mm in assay [1]; 28 mm in assay [3]; 24 mm in assay [5]; 30 mm in [7]; 30 mm in assay [9]; 31 mm in [11]. In addition, the zone of inhibition at 100 µg/disc in assay [2] amounted to 29 mm; in [4] it was 31 mm; in assay [6], 26 mm; in assay [8] it was 33 mm; in assay [10], 32 mm; in assay [12], 34 mm.

Regarding `O=C(/C=C/c1ccccc1)Nc1nc(-c2ccc(Cl)cc2)co1`, the zone of inhibition at 50 µg/disc in [1] was 22 mm; in assay [3], 20 mm; in assay [5], 21 mm; in assay [7], 24 mm; in [9] it was 25 mm; in assay [11], 27 mm. Besides, the zone of inhibition at 100 µg/disc in assay [2] came to 25 mm; in assay [4], 24 mm; in assay [6] it was 22 mm; in [8] it was 27 mm; in assay [10] it was 28 mm; in assay [12], 30 mm.

As for `O=C(Nc1nc(-c2ccc(Cl)cc2)co1)c1c[nH]cc1-c1ccccc1`, the zone of inhibition at 50 µg/disc in assay [1] was determined as 18 mm; in assay [3], 17 mm; in assay [5], 18 mm; in [7] it was 23 mm; in assay [9] it was 24 mm; in assay [11], 25 mm. In addition, the zone of inhibition at 100 µg/disc amounted to 20 mm in assay [2]; 21 mm in assay [4]; 20 mm in assay [6]; 25 mm in assay [8]; 26 mm in assay [10]; 28 mm in assay [12].

As for `Cc1ccc(-c2coc(NC(=O)c3c[nH]cc3-c3ccccc3)n2)cc1`, the “diameter of the inhibition zone (DIZ)” value in [1], in assay [2], in assay [3], in assay [4], in assay [5] and in assay [6] was “inactive” in each case. In addition, the “diameter of the inhibition zone (DIZ)” value in assay [7], in [8], in assay [9], in assay [10], in assay [11] and in assay [12] was “inactive” in each case.

For `O=C(Nc1nc(-c2ccc(Cl)cc2)c[nH]1)C1=NNCC1c1ccccc1` (stereo unspecified), the zone of inhibition at 50 µg/disc in assay [1] worked out at 25 mm; in [3], 24 mm; in [5], 21 mm; in assay [7], 28 mm; in assay [9] it was 28 mm; in [11], 29 mm. In addition, the zone of inhibition at 100 µg/disc turned out to be 27 mm in [2]; 27 mm in assay [4]; 24 mm in [6]; 30 mm in assay [8]; 30 mm in [10]; 32 mm in assay [12].

Consider `O=C(Nc1nc(-c2ccccc2)cs1)C1=NNCC1c1ccccc1` (stereo unspecified), for which the results for the zone of inhibition at 50 µg/disc in [1] and in assay [3] were 13 mm and 14 mm, respectively. Also, the values for the zone of inhibition at 100 µg/disc in assay [2] and in assay [4] were 15 mm and 16 mm, respectively. In addition, the “diameter of the inhibition zone (DIZ)” value in assay [5], in [6], in assay [7], in assay [8], in [9] and in [10] was “inactive” each time. For the same compound, the “diameter of the inhibition zone (DIZ)” value in assay [11] and in assay [12] was “inactive” in each case.

For the origin of these results see ChEMBL document CHEMBL2146447, “Synthesis and antimicrobial activity of amido linked pyrrolyl and pyrazolyl-oxazoles, thiazoles and imidazoles” (2011).
